Experimental data reported in patent publication US9650407B2, “Reprogramming of cellular adhesion” (The Regents of the University of California, priority 2011, dated 2017).

Legend:
[1] = system: heterogeneous MCF10ARas/MCF10AWT microtissues; test: Emergent phenotypes in heterogeneous MCF10ARas/MCF10AWT microtissues in 3D lrECM culture; format: cell-based; details: over 24 hr in culture vs DMSO control; LY294002 20 μM, PD325901 200 nM, Sorafenib 10 μM, PIK-90 2 μM; DNase added immediately after sorting
Procedure: Sorafenib was a gift from Kevan Shokat (UCSF0 and used at 10 μM. PIK-90 was purchased from Calbiochem and used at 2 μM. High activity DNase was purchased from Ambion. Ethidium homodimer-1 was purchased from Invitrogen and used at 1 μM.
The following antibodies were used for western blot: E-cadherin (BD Biosciences), tubulin (Sigma-Aldrich), phospho-Erk and phospho-Akt (Cell Signaling Technology), pan-Ras (Calbiochem), goat anti-mouse-HRP, and goat anti-rabbit-HRP (Thermo Scientific). The following antibodies were used for immunofluorescent staining: GM130, β-catenin (BD Biosciences), α6-integrin, laminin-5 (Millipore), cleaved caspase-3 (Cell Signaling Technology), Ki-67 (Sigma-Aldrich), gp135 (a gift from Keith Mostov, UCSF), Alexa Fluor 488- and 568-conjugated goat anti-mouse, anti-rat, and anti-rabbit antibodies (Invitrogen). F-actin was stained with Alexa Fluor 488- or 568-conjugated phalloidin (Invitrogen). LY294002 and PD325901 (Calbiochem) were used at 20 μM and 200 nM, respectively. TURBO DNase (Invitrogen) was used at a concentration of 10 U/ml.
Time-lapse images of aggregates were acquired on a Zeiss 200M inverted fluorescence microscope equipped with an XCite […] light source and a Hamamatsu camera. Field positions were programmed into Slidebook 5.0 software, and images were acquired at 30 min intervals. Samples were maintained in a humidified chamber at 37° C. and 5% CO2. Phenotypes were scored in Slidebook 5.0 software after acquisition. Microtissues that merged with other microtissues or single cells were not scored due to confounding effects on cell motility.
Apoptotic cells were excluded from phenotype quantification, as judged by cell morphology (FIG. 27, Panels A-E) or uptake of ethidium homodimer-1 (FIG. 28, Panels C, G, and H). Extruding microtis sues contained a single H2B-GFP-expressing cell pushed beyond the phase-bright boundary formed by the surrounding cells. Multicellular protrusions began with a single H2B-GFP-expressing cell that led the translation of the surrounding cells without becoming disconnected from the microtissue. H2B-GFP-expressing cells that broke away from tissues and moved alone were scored as protruding cells due to their altered morphology and motility.

Jurkat cells = test: Time-lapse imaging of membrane dynamics of DNA-immobilized cells; format: cell-based; details: 1 uM latrunculin A; for membrane tubules from the cell surface: subsequent 100 uM nocodazole; for membrane microspikes: 100 uM nocodazole, 10 ng/mL PMA and 1.3 uM ionomycin
Procedure: Cells incorporating lipid-DNA were allowed to settle onto patterned glass within a PDMS-based flow cell for 30 minutes. Only cells hybridized to the surface via DNA were retained when the surface was washed with PBS. Patterned cells were imaged at 37° C. on a Zeiss Axiovert 200M at 200× or 400× magnification using phase contrast settings.
Cells were incubated with 1 uM latrunculin A either 10 (after nocodazole treatment) or 40 minutes prior to timelapse imaging. Cells were incubated with 10 ng/mL phorbol 12-myristate 13-acetate (PMA) and 1.3 uM ionomycin 4 hours prior to lipid incorporation. Cells were incubated with 100 uM nocodazole, with or without addition of latrunculin, 10 minutes prior to imaging.
Using ImageJ, cells were picked automatically from 20× fields of view and subsequently binarized. For each time point, scanning down the y-axis, the horizontal slice with the greatest width was identified. For each cell, the coefficient of variation was calculated for this set of widths, and this statistic was used to characterize each cell's membrane motility for binning. Error bars signify standard error.

| SMILES | formation/frequency of motile multicellular protrusions [1] | frequency of basal extrusions [1] | membrane tubules from the cell surface (Jurkat cells) | membrane microspikes (Jurkat cells) |
| --- | --- | --- | --- | --- |
| O=C(NOC[C@H](O)CO)c1ccc(F)c(F)c1Nc1ccc(I)cc1F [PD325901] | blocked | blocked | – | – |
| COc1ccc2c(c1OC)N=C(NC(=O)c1cccnc1)N1CCN=C21 [PIK-90] | reduced | slightly increasing | – | – |
| CNC(=O)c1cc(Oc2ccc(NC(=O)Nc3ccc(Cl)c(C(F)(F)F)c3)cc2)ccn1 [Sorafenib] | blocked | blocked | – | – |
| C/C1=C/C(=O)O[C@@H]2C[C@@H](CC[C@H](C)/C=C\C=C\CC1)O[C@@](O)([C@@H]1CSC(=O)N1)C2 [latruncluin A, latrunculin A] | – | – | rapid growth of long tubules | blocked the formation |
| COC(=O)Nc1nc2ccc(C(=O)c3cccs3)cc2[nH]1 [nocodazole] | – | – | retraction of the membrane tubules | completely blocked |
